Measured values taken from patent US20060105458A1, “Caged tetracycline (derivatives), their generation, and their use for photoactivated gene expression” (priority 2002, published 2006).

Key:
[1] = test system: tet-dependent GFP construct in organotypic hippocampal Müller cultures; experiment: Photoactivation of organotypic hippocampal Müller cultures (tet-dependent GFP transgene); assay type: cell-based, rat or mouse; conditions: 1.5 μM, optical fiber 200 μm, irradiated three times for 2 min with an interval of 1 hour
Experimental: FIG. 5 depicts a modified assay to test photoactivation in tissues, exemplified again by the use of organotypic hippocampal Müller cultures. […] To determine the maximal level of GFP expression that is possible with this approach, unmodified doxycycline was added in saturating concentrations (2 μM). […] The bright-field image on the right allows normal visualization of the culture (FIG. 5b).
FIG. 6: In a new set of experiments, photoactivation was done by using thin optical fibers (200 μm) for irradiation with the UV light coming from a Xenon arc lamp. The UV beam could be positioned with the help of a recording electrode that was aligned to be in the center of the circular irradiation area. About half of the culture was irradiated with this arrangement. The position of the electrode is indicated by the red dot. The culture was incubated with 1.5 μM caged doxycycline one hour prior to irradiation. Cultures were irradiated three times for 2 min with an interval of 1 hour. […] FIG. 6b indicates the electrode position relative to the whole culture.

[2] = final concentration 0.1 to 1 μM, within 24 h at 37° C.
[3] = test system: tet-dependent chloramphenicol transferase (CAT) construct in organotypic hippocampal Müller cultures; experiment: Photoactivation of organotypic hippocampal Müller cultures (tet-dependent CAT transgene, immunohistochemistry); assay type: cell-based, rat or mouse
Experimental: FIG. 3 depicts a second assay to test photoactivation in tissues, exemplified by the use of organotypic hippocampal Müller cultures. […] After administration of caged doxycycline to the cells by adding it to the medium and subsequent photoactivation, CAT expression was assessed immuno-histochemically. […] CAT expression in the irradiated slice is mainly seen in cells at the border of the slice where cells become infected with viruses much more rapidly than in the center.
FIG. 4 illustrates the result of a further experiment performed by the present inventors. That is, in order to test if photoactivated gene expression can be used to induce gene expression in a locally restricted manner, adenovirus-infected Müller cultures were irradiated only in one half of the slice. […] Again, fluorescence is mostly seen at the slice boundary where the virus most readily infects cells of the culture. Thus, photoactivated gene expression provides the researcher with excellent spatial control over gene expression.
Mouse or rat hippocampal Müller cultures were prepared according to standard procedures from P5-7 animals. […] Following overnight incubation, 0.15 μM caged doxycycline was added to the medium, incubated for 1 h, and slices or selected regions of slices were irradiated for 10 sec with an upright fluorescence microscope using an appropriate filter (XF3000, OMEGA OPTICAL). Following overnight incubation, CAT fluorescence was detected immunohistochemically with a polyclonal anti-CAT antibody (Sigma).

[4] = test system: CHO cells expressing the fusion protein and containing a tetracycline-dependent EGFP construct; experiment: Photoactivation of CHO cells (EGFP reporter); assay type: cell-based
Experimental: CHO cells mentioned above (that is, cells expressing the fusion protein^3 and containing a tetracycline-dependent EGFP) were used as a simple cell culture assay were propagated and plated according to standard cell culture procedures in Ham's F-12 medium. Cells were plated in 35 mm dishes with a glass bottom from Mattek. Two days after plating, cells were overlaid with 1% low-gelling agarose in Ham's F-12 containing 1 mM Na-butyrate and 0.3 μM caged doxycycline. Subsequently, a subset of cells was locally irradiated with a hand-held 6W UV lamp (365 nm) for 30 sec. Following overnight incubation, EGFP expression was assessed with a fluorescence microscope.

## 1-(4,5-dimethoxy-2-nitrophenyl)-ethyl-caged doxycycline [DMNPE-caged doxycycline]
[1]
  GFP expression after local UV irradiation: GFP positive cells that are within the circular irradiation area
[2]
  Spontaneous decomposition under incubation conditions: about 10%
[3]; no irradiation
  CAT expression, unirradiated control slice: did not display any CAT expression
[3]; single pulse of UV irradiation, 0.15 μM caged doxycycline
  CAT expression, irradiated slice: CAT expression in a few cells

## COc1cc(C(C)O[C@]23C(=O)C(C(N)=O)=C(O)[C@H](N(C)C)[C@H]2[C@H](O)[C@@H]2C(=C3O)C(=O)c3c(O)cccc3[C@H]2C)c([N+](=O)[O-])cc1OC (stereo partly shown) [DMNPE-caged doxycycline, 1-(4,5-dimethoxy-2-nitrophenyl)-ethyl-caged doxycycline]
[3]; irradiated CHO cells or organotypic hippocampal Müller cultures
  Local expression of genes/transgenes on irradiation: specific, time-dependent, and local expression of genes/transgenes
[4]; CHO cells incubated with caged compound (0.3 μM), UV 365 nm 30 sec, overnight incubation
  EGFP fluorescence, irradiated cells: widespread EGFP fluorescence
[4]; cells in the same dish that were not irradiated
  EGFP fluorescence, cells not irradiated: did not fluoresce
